Results reported in patent publication US9193715B2, “Regulation of cholesterol homeostasis” (University of Notre Dam du Lac, priority 2012, dated 2015).

Legend:
[1] = test system: NPC1-mutant human fibroblasts (GM03123); assay: Filipin fluorescent imaging of intracellular cholesterol in NPC1-mutant human fibroblasts; format: cell-based
Method: GEX1A was evaluated for its ability to lower intracellular cholesterol levels in NPC1-mutant human fibroblasts (GM03123) through a previously described fluorescent imaging method (Pipalia et al., Automated microscopy screening for compounds that partially revert cholesterol accumulation in Niemann-Pick C cells. J. Lipid Res. (2006) 47: 284-301.).
Compounds described herein were evaluated for their ability to lower intracellular cholesterol levels in NPC1-mutant human fibroblasts (GM03123) by the fluorescent imaging methods of Pipalia and coworkers.

human endothelial cells = assay: Filipin staining of cholesterol in itraconazole-induced NPC-like phenotype; format: cell-based
Method: Itraconazole, an anti-fungal agent, interferes with cholesterol trafficking and induces an NPC-like phenotype in human endothelial cells. Itraconazole (200 nM) was administered in two experiments with 100 nM GEX1A and 10 nM GEX1A, respectively. Filipin is used as a histochemical stain to visualize cholesterol in the cell line.

Row | SMILES | correction of the NPC1 phenotype (filipin staining in the cell) ([1]; GM03123 cells, fluorescent imaging, FIG. 2) | potency in the classic filipin assay relative to HDAC inhibitors ([1]; NPC cells, preliminary studies) | amount of cholesterol in cell line (filipin stain) (human endothelial cells; 10 nM GEX1A with itraconazole 200 nM) | amount of cholesterol in cell line (filipin stain) (human endothelial cells; 100 nM GEX1A with itraconazole 200 nM) | IC50 (human endothelial cells; Homo sapiens, Endothelial cell, filipin cholesterol staining, itraconazole 200 nM) | correction of the NPC1 phenotype ([1]; 10 nM to 100 nM, time points of 24-72 hours, postulated)
1 | CO[C@H]([C@@H](C)[C@H]1OC1(C)C[C@H](C)/C=C/C=C(\C)[C@H]1O[C@@H](CC(=O)O)CC[C@@H]1C)[C@@H](C)O (stereo partly drawn) [GEX1A] | correction of the NPC1 phenotype | equipotent to HDAC inhibitors | significant decrease | significant decrease | 6 nM | –
2 | CC[C@H](O)[C@@H](C)[C@H]1O[C@@H]1C[C@H](C)/C=C/C=C(\C)[C@H]1OC(=O)C[C@H](O)CC[C@@](C)(O)[C@@H](OC(C)=O)/C=C/[C@@H]1C [Pladienolide, pladienolide B] | – | – | – | – | – | significant correction of the NPC1 phenotype
